Measurements from patent publication EP1733758A1, “Methods for administration of a farnesyl dibenzodiazepinone” (Ecopia Biosciences Inc., priority 2005, dated 2006).

How the values were obtained:
[1] = test system: rat glioma (C6) tumor xenograft; experiment: Rat C6 glioblastoma subcutaneous tumor xenograft antitumor efficacy study; assay type: in vivo, female athymic (nu/nu) nude mice; conditions: for %TGI: analyzed at Day 18, P < 0.0001
Description: The rat C6 glioblastoma antitumor efficacy study was performed at INSERM U318 (Grenoble, France). The rat C6 glioblastoma subcutaneous tumor model is based on the use of a rat C6 cell line obtained from a rat glial tumor induced by N-nitrosomethylurea (Benda et al. (1968), Science, vol 161, 370-371). These animal studies were done according to ethical guidelines of animal experimentation (Charte du comité d'éthique du CNRS, 2003) and the English "Guidelines for the welfare of animals in experimental neoplasia (Second Edition)" from the United Kingdom Coordinating Committee on Cancer Research (UKCCCR) (Workman et al. (1998), Br. J. Cancer, vol 77, no 1, 1-10). On each dosing day, Formula I stock solutions (24 and 40 mg/mL in 20% ethanol, 20% PEG-400 and 60% Tween 80) were diluted with sterile 5% dextrose in water (D5W) to prepare dosing solutions of 6 mg/mL and 10 mg/mL of Formula I in a vehicle consisting of 5% ethanol, 5% PEG-400, 15% Tween-80, and 75% D5W.
For the rat glioma antitumor efficacy study, female athymic (nu/nu) nude mice (6-7 weeks of age) were inoculated SC with 5 x 10^6 C6 cells (day 0). Tumor bearing animals were randomized (10 per group) when tumors were palpable (day 6). Group 1 (control group) received drug-free vehicle (5% ethanol, 5% PEG-400, 15% Tween-80, and 75% D5W) IP (5 mL/kg), once daily on days 6-18 (q1d x 13). Group 2 received Formula I (6 mg/mL) IP at 20 mg/kg, once daily on days 6 to 13 and then at 10 mg/kg once daily on days 14 to 18. Group 3 received Formula I (6 mg/mL) SC at 30 mg/kg, once daily on days 6 to 13 and then at 15 mg/kg once daily on days 14 to 18. Group 4 received Formula I (10 mg/mL) IV at 100 mg/kg q1d x 5 for 2 weeks. Each animal was euthanized when its tumor reached the predetermined endpoint size (∼2,500 mm^3) or at the end of the study (D18). Treatment period was over 13 days, from day 6 to day 18, post tumor cell inoculation. Tumor growth inhibition (TGI) was calculated on day 16 post tumor cell inoculation, at which time some animals from the vehicle control group had to be sacrificed due to tumor burden.
In this model and the models of Examples 3, 6 and 7, tumor growth was followed every other day by measuring tumor length (L) and width (W) using a calliper. Measurements were converted to tumor volumes (TV; mm^3) using the standard formula, TV = (L xW^2)/2. Tumor volume at day n was expressed as relative tumor volume (RTV) according to the following formula RTV = TVn / TV0, where TVn is the tumor volume at day n and TV0 is the tumor volume at day 0. The percentage of tumor growth inhibition (%TGI) was determined by 1 ― (mean RTV of treated group/ mean RTV of control group) x 100. […] Statistical analysis was calculated by the two-tailed unpaired t test using the Prism software. Animals were weighed at least twice weekly during and after treatment until completion of the study. The mice were examined frequently for overt signs of any adverse drug-related side effects.
When the time to endpoint (TTE) for each mouse was also calculated by the following equation: TTE = (log10(endpoint volume)−b)/(m) [formula] Where TTE is expressed in days, endpoint volume is in mm^3, b is the intercept, and m is the slope of the line obtained by linear regression of a log-transformed tumor data set. This value was used to determined % tumor growth delay (%TGD), defined as the increase in median TTE for a treatment group compared to the control group expressed in days, or as a percentage of the median TTE of the control group.

[2] = test system: human breast tumor (MDA-MB-231) xenografts; experiment: Human MDA-MB-231 breast tumor xenograft efficacy; assay type: in vivo, HRLN female nude mice; conditions: for T/C / %T/C: day 21; for %T/C: P < 0.0001
Description: The antitumor activity of the compound of Formula I was further tested in a human MD-MB-231 breast cancer model in mice. HRLN female nude mice (8 weeks of age) were treated with 5x10^6 MDA-MB-231 tumor cells (SC) in the right flank. Animals were randomized (ten per group) when tumors reach an average size of 80 - 120 mg and treatment began according to the table below. For these studies, the compound of Formula I was formulated in 5% ethanol, 5% PEG-400, 15% Polysorbate 80, and 75% of water containing 5% dextrose.
Tumor measurements were taken twice weekly using calipers and were converted to tumor mass (in milligrams) using the formula: with^2 (mm) x length (mm) x 0.52. Body weights were also recorded twice weekly. Statistical analysis was done using the unpaired two-tailed Student's t test.

[3] = Population pharmacokinetic analysis (NONMEM), monkey; assay type: in vivo; conditions: for clearance: monkey, plasma, intravenous; for clearance / mean steady-state plasma concentration: monkeys, 14-day continuous infusion
Description: An analysis was performed to derive allometric equations for Formula I pharmacokinetic parameters using Formula I plasma concentration-time data from three species, including mouse, rat, and monkey, and to estimate human pharmacokinetic parameters from those allometric equations.
Plasma concentrations of Formula I were obtained from mice, rats, and monkeys following intravenous injection or continuous infusion. Formula I pharmacokinetic parameters in mice, rats, and monkeys were estimated using population pharmacokinetic analysis, a function of the software program NONMEM™ (version 5). Typical population pharmacokinetic parameters for Formula I in humans were extrapolated from allometric equations that were derived from pharmacokinetic parameters estimated in the three animal species.
A two-compartment model with a first-order elimination from the central compartment adequately described Formula I plasma concentration-time profiles following intravenous bolus injection (30 mg/kg) in mice and rats, 7-day continuous infusion in rats (50 to 170 mg/kg/day), and 14-day continuous infusion in monkeys (5 to 30 mg/kg/day).
Application of a two-compartment model with Michaelis-Menten elimination better described the concentration data in monkeys than the linear model. Because the target concentration in humans is 2 µM, at which linear pharmacokinetics is assumed, all simulations for human plasma concentrations were performed based on a two-compartment model with linear first-order elimination.

[4] = Monkey (CIV), typical population PK parameter
[5] = 5 mg/kg/day (Example 9 analysis)
[6] = 15 mg/kg/day (Example 9 analysis)
[7] = 30 mg/kg/day (Example 9 analysis)

For `CC(C)=CCC/C(C)=C/CC/C(C)=C/CN1C(=O)c2cccc(O)c2Nc2c(O)cc(O)cc21` [Formula I, 10-farnesyl-4,6,8-trihydroxy-dibenzodiazepin-11-one], which “Maximum body weight loss” value ([1]; IP 20 mg/kg (Q1D x 8) followed by 10 mg/kg (Q1D x 7), Day 13) is on record?
The value was 15%.

What about the “difference in tumor volume relative to the vehicle control” value ([1]; IV bolus 100 mg/kg (Q1D x 5) over 2 weeks) of the same compound?
The value was “No significant difference”.

And the body weight loss ([1]; IV group, 100 mg/kg q1d x 5 for 2 weeks)?
The body weight loss was “No significant body weight loss”.

And the “Maximum body weight loss” value ([1]; SC 30 mg/kg (Q1D x 8) followed by 15 mg/kg (Q1D x 7))?
The value was 11%.

And the “%TGI” value ([1]; daily bolus IP 20 then 10 mg/kg)?
Its value is 66%.

And the “%TGI” value ([1]; daily bolus SC 30 then 15 mg/kg)?
Its value is 60%.

What about the T/C ([2]; IP 30 mg/kg every three days x 7, P = 0.0007) of the same compound?
The T/C was 58%.

What about the “%T/C” value ([2]; SC 20 mg/kg everyday for 21 days) of the same compound?
Its value is 40%.

What about the “%T/C” value ([2]; SC 30 mg/kg days 1 to 5, 8 to 12) of the same compound?
The value was 35%.

What about the T/C ([2]; SC 50 mg/kg every three days x 7, P= 0.0019) of the same compound?
The T/C was 68%.

And the antitumor activity ([2]; bolus intravenous treatment (100 mg/kg, 5/2/5/2/5))?
The antitumor activity was “did not result in activity”.

What about the Q ([3]; Monkey (CIV), WT 3.8 Kg) of the same compound?
The Q was 0.151 L/h.

What about the V1 ([3]; Monkey (CIV), WT 3.8 Kg) of the same compound?
The V1 was 0.771 L.

And the V2 ([3]; Monkey (CIV), WT 3.8 Kg)?
The V2 was 1.59 L.

And the Ke [3, 4]?
Its Ke is 2.172 h⁻¹.

What about the Q [3, 4] of the same compound?
The Q was 0.663 mL/min/kg.

What about the V1 [3, 4] of the same compound?
Its V1 is 0.203 L/kg.

What about the V2 [3, 4] of the same compound?
Its V2 is 0.419 L/kg.

What about the clearance [3, 5] of the same compound?
Its clearance is 10.5 mL/min/kg.

What about the clearance [3, 6] of the same compound?
The clearance was 9.5 mL/min/kg.

What about the clearance [3, 7] of the same compound?
Its clearance is 3.83 mL/min/kg.

And the “mean steady-state plasma concentration” value [3, 5]?
Its value is 0.75 µM.

And the “mean steady-state plasma concentration” value [3, 6]?
Its value is 2.57 µM.

What about the “mean steady-state plasma concentration” value [3, 7] of the same compound?
The value was 14.07 µM.
